Assay results as given in patent publication US20230021483A1, “[…] […] METHOD AND CLASSIFICATION OF PHARMACEUTICAL COMPONENTS BY USING TRANSCRIPTOMES” (National Institutes of Biomedical Innovation, Health and …, priority 2016, published 2023).

Key:
Type in all cases: in vivo, C57BL/6 mice
[1] = tested on: inguinal lymph nodes (LN); experiment: Whole organ transcriptome (GeneChip microarray) of draining inguinal lymph nodes 6 h after adjuvant administration: sDEGs, gene modules, hierarchical clustering; as to adjuvant group (cluster) in LN: key: G1 (interferon signaling); G2 (metabolism of lipids and lipoproteins); G3 (response to stress); G4 (response to wounding); G5 (phosphate-containing compound metabolic process); G6 (phagosome)
[2] = tested on: LV, SP and LNs; experiment: Whole organ transcriptome across organs (adjuvant gene space): gene responses and adjuvant grouping; conditions: hierarchical clustering; LV, SP and/or LNs
[3] = tested on: preferentially upregulated genes in LV, SP, LN; experiment: Z-score-based differential gene expression analysis (adjuvant group- or adjuvant-associated genes, 40 module mapping, TargetMine annotation); conditions: ID
Source text: Each sample's FC value was converted into a z-score on a gene basis by using the entire data set for each organ. The Z-score of the triplicates of interest were summed for each adjuvant. For example, the three sample z-score in the LV sample following cdiGMP administration was summed on a gene-by-gene basis, after which the summed scores of >3 genes were selected as relatively preferentially expressed genes in the LV after cdiGMP administration. The following threshold was applied for selections. […] G2^LV: ALM_IP(z>1) & bCD(z>1) & ENDCN(z>1) & FCA(z>1). […] G4^LV: MALP2s(z>3). […] G2^SP: ENDCN_x2+ENDCN_x3(z>2) & ALM_IP(z>3) & bCD(z>3). […] G4^SP: ADX_ID_x2+ADX_ID_x3(z>2) & ADX_IP(z>3) & MALP2s(z>3). […] G2^LN: bCD(z>3) & FCA(z>3). […] G5^LN: K3(z>1.5) & K3SPG_x1+K3SPG_x2(z>1) & D35_x1+D35_x3(z>1). G6^LN: AddaVax(z>3).

SMILES: Cc1ccc2c(=O)c3cccc(CC(=O)O)c3oc2c1C [DMXAA, 5,6-dimethylxanthenone-4-acetic acid]
- module M40^LN (immune system process; dendritic cells, macrophages, neutrophils, stromal cells) ([1]; LN, 6 h): strongly induced
- adjuvant group (cluster) in LN ([1]; hierarchical clustering, lymph node): G1
- Number of gene probes with statistically significant changes (sDEGs), LN, Down ([1]; i.d. administration, lymph node, fold change <0.667, p<0.01, customized PA call=1, 6 h after adjuvant): 261
- Number of gene probes with statistically significant changes (sDEGs), LN, Up ([1]; i.d. administration, lymph node, fold change >1.5, p<0.01, customized PA call=1, 6 h after adjuvant): 1342
- adjuvant group (cluster) within the adjuvant gene space [2]: group (G) 1
- z sum, 1428027_at LOC100653389 ([3]; LN, Modules 26): −2.22
- z sum, 1419721_at Niacr1 ([3]; LN, Modules 27): −1.88
- z sum, 1418424_at Tnfaip6 ([3]; LN, Modules 29): −1.91
- z sum, 1419534_at Olr1 ([3]; LN, Modules 29): −1.6
- z sum, 1421457_a_at Samsn1 ([3]; LN, Modules 29): −2.04
- z sum, 1422305_at Ifnb1 ([3]; LN, Modules 29): −1.99
- z sum, 1423028_at Ifna2 ([3]; LN, Modules 29): −2.04
- z sum, 1425837_a_at Ccrn4l ([3]; LN, Modules 29): −1.85
- z sum, 1436387_at C330006P03Rik///Homer1 ([3]; LN, Modules 29): −2.24
- z sum, 1439349_at Sbno2 ([3]; LN, Modules 29): −1.84
- z sum, 1444010_at Eif4e ([3]; LN, Modules 29): −1.94
- z sum, 1448325_at Ppp1r15a ([3]; LN, Modules 29): −1.63
- z sum, 1449311_at Bach1 ([3]; LN, Modules 29): −1.97
- z sum, 1450297_at Il6 ([3]; LN, Modules 29): −1.88
- z sum, 1455197_at Rnd1 ([3]; LN, Modules 29): −1.86
- z sum, 1455899_x_at Socs3 ([3]; LN, Modules 29): −1.79
- z sum ([3]; LN, Modules 34): −2.09
- z sum, 1417252_at Ptgs2 ([3]; LN, Modules 34): −1.55
- z sum, 1417263_at Ptgs2 ([3]; LN, Modules 34): −1.77
- z sum, 1421473_at Il1a ([3]; LN, Modules 34): −1.71
- z sum, 1439981_at Tespa1 ([3]; LN, Modules 35): −1.8
- z sum, 1441843_s_at 5230400M03Rik ([3]; LN, Modules 35): −2.25
- z sum, 1442556_at --- ([3]; LN, Modules 35): −2.03
- z sum, 1443414_at C78513 ([3]; LN, Modules 35): −2.02
- z sum, 1444598_at --- ([3]; LN, Modules 35): −2
- z sum, 1445534_at --- ([3]; LN, Modules 35): −2
- z sum, 1446245_at --- ([3]; LN, Modules 35): −2.34
- z sum, 1457944_at --- ([3]; LN, Modules 35): −2.16
- z sum, 1458376_at B930025B16Rik ([3]; LN, Modules 35): −2.11
- z sum, 1459144_at --- ([3]; LN, Modules 35): −2.06
- z sum, 1425687_at Cflar ([3]; LN, Modules 36): −1.76
- z sum, 1427736_a_at Ccrl2 ([3]; LN, Modules 36): −2.22
- z sum, 1449169_at Has2 ([3]; LN, Modules 36): −2.25
- z sum, 1453636_at Pcgf5 ([3]; LN, Modules 36): −2.11
- z sum, 1457888_at --- ([3]; LN, Modules 36): −2.02
- z sum, 1419508_at Ripk1 ([3]; LN, Modules 37): −2.04
- z sum, 1421578_at Ccl4 ([3]; LN, Modules 37): −1.85
- z sum, 1421679_a_at Cdkn1a ([3]; LN, Modules 37): −1.99
- z sum, 1424638_at Cdkn1a ([3]; LN, Modules 37): −1.71
- z sum, 1433508_at Klf6 ([3]; LN, Modules 37): −1.54
- z sum, 1434350_at Csrnp1 ([3]; LN, Modules 37): −1.99
- z sum, 1439680_at Tnfsf10 ([3]; LN, Modules 37): −2.27
- z sum, 1448724_at Cish ([3]; LN, Modules 37): −1.56
- z sum, 1451340_at Arid5a ([3]; LN, Modules 37): −2.28
- z sum, 1453851_a_at Gadd45g ([3]; LN, Modules 37): −2
- z sum, 1457404_at Nfkbiz ([3]; LN, Modules 37): −2.06
- z sum, 1458589_at --- ([3]; LN, Modules 37): −1.59
- z sum, 1422054_a_at 5kil ([3]; LN, Modules 40): −1.69
- z sum, 1428735_at Cd69 ([3]; LN, Modules 40): −2.42
- Adar 1425405_a_at (Group G1, Modules 20) ([3]; LV, sample x1): 2.03
- Adar 1434268_at (Group G1, Modules 20) ([3]; LV, sample x1): 2.15
- Ddx58 1436562_at (Group G1, Modules 20) ([3]; LV, sample x1): 2.07
- Ddx58 1456890_at (Group G1, Modules 20) ([3]; LV, sample x1): 1.67
- Eif2ak2 1422005_at (Group G1, Modules 20) ([3]; LV, sample x1): 1.36
- G3bp2 1421323_a_at (Group G1, Modules 20) ([3]; LV, sample x1): 1.32
- Gm9706///Isg15 1431591_s_at (Group G1, Modules 20) ([3]; LV, sample x1): 1.28
- H2-T10///H2-T22///H2-T9 1449875_s_at (Group G1, Modules 20) ([3]; LV, sample x1): 1.27
- Ifih1 1426276_at (Group G1, Modules 20) ([3]; LV, sample x1): 1.25
- Ifit1 1450783_at (Group G1, Modules 20) ([3]; LV, sample x1): 2.21
- Ifit3 1449025_at (Group G1, Modules 20) ([3]; LV, sample x1): 1.39
- Irf7 1417244_a_at (Group G1, Modules 20) ([3]; LV, sample x1): 1.05
- Irgm1 1418825_at (Group G1, Modules 20) ([3]; LV, sample x1): 1.39
- Mndal 1426906_at (Group G1, Modules 20) ([3]; LV, sample x1): 1.42
- Pml 1448757_at (Group G1, Modules 20) ([3]; LV, sample x1): 1.62
- Pml 1456103_at (Group G1, Modules 20) ([3]; LV, sample x1): 2.18
